{
  "source": "patent US9855261B2",
  "about": "“Polymeric compound having camptothecin compound and anti-cancer effect enhancer bound thereto, and use of same” (priority 2012, dated 2018)",
  "origin": "cited, not measured here",
  "details": "of its dose",
  "data": [
    {"smiles": "CC[C@@]1(O)C(=O)OCc2c1cc1n(c2=O)Cc2cc3c(CN(C)C)c(O)ccc3nc2-1", "note": "[Topotecan]", "values": [
      {"measurement": "share of dose excreted renally", "result": "20-40%"}
    ]}
  ]
}
